Columns and labels:
Type in all cases: in vivo, CD-1 nude mice
[1] = Body weight of nude mice bearing A375P F11s xenografts during treatment
Method: (§1) Female CD-1 nude mice of 6-8 weeks in age were used in these studies; all mice were obtained from Charles River Laboratories (Wilmington, Del.). Animals were housed in pathogen free conditions and handled with aseptic technique.
(§2) Mice with similar sized tumors (100-300 mm^3) were identified. The length and width of the tumors were measured by handheld calipers and body weights of the mice were measured using a bench top weighing scale. Tumor volumes were calculated based on the following formula: tumor volume=(Length×Width^2)/2. Mice were block randomized into the required number of dosing groups (n=8 mice/group). The randomization process ensured that the average tumor volume for each dosing group was approximately equal at the beginning of the study and mice with differing tumor volumes were evenly distributed. Mice were placed in groups of eight accordingly and dosed with either vehicle or compound for 36 days either once or twice daily, as summarised in the table below. Mice were weighed and tumors measured twice weekly for the duration of the study using Studylog animal study management software (Studylog Systems, Inc., South San Francisco, Calif., USA).

[2] = system: A375P F11s tumor xenografts; assay: A375P F11s tumor xenograft efficacy in nude mice
[3] = system: A375P F11s tumor xenografts; assay: A375P F11s tumor xenograft efficacy in nude mice; remark: listed apart in the source
Method: as §1
The A375P F11s cell line, encoding a mutation for BRAF^V600E, was subcloned from the A375P human melanoma cell line (obtained from ATCC, Cat # CRL-1619).
The A375P F11s cell lines were grown in RPMI growth medium supplemented with 10% fetal bovine serum (FBS), 1% sodium pyruvate and 1% penicillin-streptomycin in a humidified 37° C. chamber with 5% CO2. Cells were expanded to obtain the large numbers of cells required for each injection; cells were grown in log phase, without reaching confluency and passaged regularly.
A375P F11s cells were harvested from culture flasks by exposure to 0.25% trypsin/EDTA for 5 min at 37° C. Detached cells were collected, centrifuged (1500 rpm, 5 min, 4° C.) and rinsed to remove the trypsin solution. Cells were re-suspended in PBS without magnesium or calcium and counted. Cells were spun as described previously to remove PBS and a single cell suspension was created in 50% Matrigel: 50% PBS (v:v) so that a 100 μL subcutaneous injection would deliver 1.75 million cells per mouse.
Compounds were administered in vehicles as described below.
as §2
Tumor volumes were calculated based on the following formula: tumor volume=(Length×Width^2)/2. Tumor growth curves were created from the mean±standard error of the mean, with n=8 animals per group. The percentage of tumor growth inhibition was calculated on the final day of dosing using the following formula: 1—(tumor volume in drug-treated population/tumor volume in vehicle-treated control population).

[4] = Group 3: Compound B 0.1 mg/kg PO QD, study day 0
[5] = Group 3: Compound B 0.1 mg/kg PO QD, study day 3
[6] = Group 3: Compound B 0.1 mg/kg PO QD, study day 7
[7] = Group 3: Compound B 0.1 mg/kg PO QD, study day 9
[8] = Group 3: Compound B 0.1 mg/kg PO QD, study day 15
[9] = Group 3: Compound B 0.1 mg/kg PO QD, study day 18
[10] = Group 3: Compound B 0.1 mg/kg PO QD, study day 22
[11] = Group 3: Compound B 0.1 mg/kg PO QD, study day 25
[12] = Group 3: Compound B 0.1 mg/kg PO QD, study day 28
[13] = Group 6: Compound B 0.3 mg/kg PO QD, study day 0
[14] = Group 6: Compound B 0.3 mg/kg PO QD, study day 3
[15] = Group 6: Compound B 0.3 mg/kg PO QD, study day 7
[16] = Group 6: Compound B 0.3 mg/kg PO QD, study day 9
[17] = Group 6: Compound B 0.3 mg/kg PO QD, study day 15
[18] = Group 6: Compound B 0.3 mg/kg PO QD, study day 18
[19] = Group 6: Compound B 0.3 mg/kg PO QD, study day 22
[20] = Group 6: Compound B 0.3 mg/kg PO QD, study day 25
[21] = Group 6: Compound B 0.3 mg/kg PO QD, study day 28
[22] = Group 6: Compound B 0.3 mg/kg PO QD, study day 31
[23] = Group 6: Compound B 0.3 mg/kg PO QD, study day 35
[24] = Group 6: Compound B 0.3 mg/kg PO QD, study day 37

Cc1ccc(Nc2nccc(N(C)c3ccc4c(C)n(C)nc4c3)n2)cc1S(N)(=O)=O [Compound A, 5-[[4-[(2,3-dimethyl-2H-indazol-6-yl)methylamino]-2-pyrimidinyl]amino]-2-methylbenzenesulfonamide, reference compound]
Mean body weight ([1]; Group 2: Compound A 100 mg/kg PO BID, study day 0): 24.98 g
Mean body weight ([1]; Group 2: Compound A 100 mg/kg PO BID, study day 3): 25.13 g
Mean body weight ([1]; Group 2: Compound A 100 mg/kg PO BID, study day 7): 25.63 g
Mean body weight ([1]; Group 2: Compound A 100 mg/kg PO BID, study day 9): 25.29 g
Mean body weight ([1]; Group 2: Compound A 100 mg/kg PO BID, study day 15): 24.83 g
Mean body weight ([1]; Group 2: Compound A 100 mg/kg PO BID, study day 18): 25.35 g
Mean body weight ([1]; Group 2: Compound A 100 mg/kg PO BID, study day 22): 24.71 g
Mean body weight ([1]; Group 2: Compound A 100 mg/kg PO BID, study day 25): 24.79 g
Mean body weight ([1]; Group 2: Compound A 100 mg/kg PO BID, study day 28): 24.91 g
Mean body weight ([1]; Group 2: Compound A 100 mg/kg PO BID, study day 31): 25.33 g
Mean body weight ([1]; Group 2: Compound A 100 mg/kg PO BID, study day 35): 24.95 g
Mean body weight ([1]; Group 2: Compound A 100 mg/kg PO BID, study day 37): 25.00 g

CC(=O)Nc1cccc(-n2c(=O)n(C3CC3)c(=O)c3c(Nc4ccc(I)cc4F)n(C)c(=O)c(C)c32)c1 [Compound B, N-{3-[3-cyclopropyl-5-(2-fluoro-4-iodo-phenylamino)-6,8-dimethy-2,4,7-trioxo-3,4,6,7-tetrahydro-2H-pyrido[4,3-d]pyrimidin-1-yl]phenyl}acetamide]
Mean body weight [1, 4]: 26.30 g
Mean body weight [1, 5]: 26.00 g
Mean body weight [1, 6]: 26.24 g
Mean body weight [1, 7]: 26.23 g
Mean body weight [1, 8]: 26.09 g
Mean body weight [1, 9]: 27.09 g
Mean body weight [1, 10]: 26.73 g
Mean body weight [1, 11]: 26.80 g
Mean body weight [1, 12]: 26.93 g
Mean body weight [1, 13]: 24.59 g
Mean body weight [1, 14]: 24.10 g
Mean body weight [1, 15]: 23.89 g
Mean body weight [1, 16]: 23.93 g
Mean body weight [1, 17]: 23.94 g
Mean body weight [1, 18]: 24.41 g
Mean body weight [1, 19]: 23.83 g
Mean body weight [1, 20]: 23.95 g
Mean body weight [1, 21]: 24.18 g
Mean body weight [1, 22]: 24.49 g
Mean body weight [1, 23]: 24.54 g
Mean body weight [1, 24]: 24.64 g
Percent inhibition of tumor volume compared to vehicle treated mice [2, 5]: −4.1%
Percent inhibition of tumor volume compared to vehicle treated mice [2, 10]: 2.1%
Percent inhibition of tumor volume compared to vehicle treated mice [2, 13]: −15.41%
Percent inhibition of tumor volume compared to vehicle treated mice [2, 16]: 68.1%
Percent inhibition of tumor volume compared to vehicle treated mice [2, 17]: 82.0%
Percent inhibition of tumor volume compared to vehicle treated mice [2, 19]: 76.8%
smaller tumors compared to vehicle control ([3]; Compound B 0.3 mg/kg QD): 70.4%
tumor volume course under extended treatment ([3]; Compound B alone 0.3 mg/kg, treatment continued until day 37): tumor volume started to increase even under continued drug treatment
Mean tumor volume [3, 4]: 199.3 mm^3
Percent inhibition of tumor volume compared to vehicle treated mice [3, 4]: −15.70%
Mean tumor volume [3, 5]: 260.5 mm^3
Mean tumor volume [3, 6]: 300.8 mm^3
Percent inhibition of tumor volume compared to vehicle treated mice [3, 6]: 3.1%
Mean tumor volume [3, 7]: 335.1 mm^3
Percent inhibition of tumor volume compared to vehicle treated mice [3, 7]: 14.2%
Mean tumor volume [3, 8]: 459.3 mm^3
Percent inhibition of tumor volume compared to vehicle treated mice [3, 8]: 28.2%
Mean tumor volume [3, 9]: 616.2 mm^3
Percent inhibition of tumor volume compared to vehicle treated mice [3, 9]: 15.3%
Mean tumor volume [3, 10]: 916.9 mm^3
Mean tumor volume [3, 11]: 1,100.3 mm^3
Percent inhibition of tumor volume compared to vehicle treated mice [3, 11]: −1.0%
Mean tumor volume [3, 12]: 1,338.4 mm^3
Percent inhibition of tumor volume compared to vehicle treated mice [3, 12]: −6.8%
Mean tumor volume [3, 13]: 198.8 mm^3
Mean tumor volume [3, 14]: 205.9 mm^3
Percent inhibition of tumor volume compared to vehicle treated mice [3, 14]: 17.7%
Mean tumor volume [3, 15]: 141.2 mm^3
Percent inhibition of tumor volume compared to vehicle treated mice [3, 15]: 54.5%
Mean tumor volume [3, 16]: 124.4 mm^3
Mean tumor volume [3, 17]: 115.1 mm^3
Mean tumor volume [3, 18]: 141.4 mm^3
Percent inhibition of tumor volume compared to vehicle treated mice [3, 18]: 80.5%
Mean tumor volume [3, 19]: 217.3 mm^3
Mean tumor volume [3, 20]: 300.3 mm^3
Percent inhibition of tumor volume compared to vehicle treated mice [3, 20]: 72.4%
Mean tumor volume [3, 21]: 370.6 mm^3
Percent inhibition of tumor volume compared to vehicle treated mice [3, 21]: 70.4%
Mean tumor volume [3, 22]: 450.5 mm^3
Mean tumor volume [3, 23]: 529.1 mm^3
Mean tumor volume [3, 24]: 604.4 mm^3

— US20140323506A1, “COMBINATION” (GlaxoSmithKline Intellectual Property Development Limited, priority 2010, published 2014)
